Test results: patent US20200261440A1, “ZINC IONOPHORES AND USES THEREOF” (THE UNIVERSITY OF QUEENSLAND, priority 2017, published 2020)
Where two headings read alike, the source gives them in different places. Marks after values point to notes of the source that are not given here.

Tests used:
[1] = tested on: Klebsiella pneumoniae strain MS6771; assay: MIC by broth microdilution (CLSI); type: cell-based
[2] = tested on: Methicillin-resistant Staphylococcus aureus (MRSA) strain USA300; assay: MIC by broth microdilution (CLSI)
Procedure: GAS HKU16, MRSA USA300, VRE RBWH1, Klebsiella pneumoniae strain MS6771, E. coli strain MS8345 and Streptococcus pneumoniae strain 23F were grown in Todd-Hewitt broth (THB) or agar with 1% yeast extract (THY) [Todd, E. W. & Hewitt, L. F. A new culture medium for the production of antigenic streptococcal haemolysin. […] Bacteria were routinely grown at 37° C. in ambient air.
MICs were determined by broth microdilution in accordance to CLSI guidelines (“Methods for Dilution Antimicrobial Susceptibility Tests for Bacteria That Grow Aerobically”, Clinical and Laboratory Standards Institute) [Clinical and Laboratory Standards Institute. […] For MRSA, VRE, Klebsiella pneumoniae and E. coli the assays were performed in MHB, and for GAS and Streptococcus pneumoniae MHB+2.5% lysed horse blood (LHB) was used. The bacterial inoculum was prepared by direct colony suspension aiming for 2-8×10^5 colony forming units (CFU)/mL bacteria per well. Antibiotics/compounds were serially diluted two-fold across the 96-well plate, the last column contained no antibiotics/compounds. The inoculum was added to the plate containing antibiotic/compound and incubated for 16-24 h at 35+/−2° C. […] MIC assays were carried out in biological triplicates.
Using Clinical and Laboratory Standards Institute guidelines for antimicrobial sensitivity testing [Clinical and Laboratory Standards Institute.

VRE [3] = assay: Murine wound infection model; type: in vivo, BALB/c mice; details: 4 days
Text: For wound infection, 4-7 week old female BALB/c mice were used and housed in individual cages [Pandey, M. et al. A synthetic M protein peptide synergizes with a CXC chemokine protease to induce vaccine-mediated protection against virulent streptococcal pyoderma and bacteremia. J Immunol 194, 5915-5925, doi:10.4049/jimmunol.1500157 (2015)]. The neck area of the mice was shaved and residual hair removed using Nair (Church & Dwight) prior to the experiment. On the day of infection, mice were anesthetized by inhalation of methoxyflurane and a small superficial scarification was made on the shaved skin using a metal file. For infection, 5×10^6-2×10^7 CFU GAS or 5×10^5-2×10^6 CFU MRSA/VRE were applied onto the scarified skin. […] Mice were treated with ointment twice daily and a total of 9 treatments were applied. […] […] After four days treatment, the mice were euthanized, the scarified skin was excised, and washed twice in PBS by vortexing for 30 seconds. […] Each treatment group contained six mice and statistical significance was calculated using an unpaired t-test (non-parametric).

[4] = tested on: GAS strain HKU16 (Streptococcus pyogenes strain HKU16); assay: microbe, parasite or virus in culture; type: cell-based
Procedure: (§1) J. Path. Bact. […] Proc. Soc.
(§2) MIC assays were carried out in biological triplicates.
(§3) M100 Performance Standards for Antimicrobial Susceptibility Testing, 27th Edition.

[5] = tested on: Vancomycin-resistant Enterococci (VRE) clinical isolate RBWH1; assay: MIC by broth microdilution (CLSI); type: cell-based, Enterococcus; details: for antibiotic sensitivity of resistant strain: addition of sub-inhibitory PBT2+zinc(II) ions
Procedure: as §1, §2, §3

[6] = tested on: MCR-1 E. coli strain MS8345; assay: MIC by broth microdilution (CLSI); type: cell-based, Escherichia coli; details: for antibiotic sensitivity of resistant strain: MCR1-positive E. coli MS8345; for MIC: MCR-1 E. coli
Procedure: as §1
J Infect Dis. 1995 171:890-6). E. coli strain MS8345 is a MCR-1 resistant clinical isolate supplied by Prof. D. L. Paterson, University of Queensland Centre for Clinical Research.
(§4) (2017)]. […] MIC assays were carried out in biological triplicates.

A. baumannii strain 42-A = assay: MIC by broth microdilution (CLSI); type: cell-based, Acinetobacter baumannii; details: Untreated
Procedure: (§5) They were obtained from Jan Bell, Australian Centre of Microbial Resistance Ecology (ACARE), University of Adelaide, Australia.
as §4

[7] = tested on: P. aeruginosa strain 253-43-C; assay: MIC by broth microdilution (CLSI); type: cell-based, Pseudomonas aeruginosa
Procedure: as §5, §4

VRE [8] = assay: Drop test assay, growth on THY agar; type: cell-based, Enterococcus; details: PBT2 (1.5 μM), zinc(II) ions (400 μM)
Procedure: (§6) FIG. 1a illustrates growth of GAS, MRSA and VRE on THY agar in the presence or absence of PBT2 (1.5 μM) and zinc(II) ions (400 μM).
(§7) Bacteria were diluted from overnight cultures to get a starting OD600 of 0.01 in THY. Once the bacteria grew to an OD600 of 0.6, the culture were serially diluted in PBS and 5 μL of each dilution (undiluted, 10^−1, 10^−2, 10^−3, 10^−4, 10^−5) was plated on THY agar plates with or without zinc (400 μM) and/or PBT2 ([…]). Plates were incubated at 37° C. overnight. Drop tests were undertaken in biological triplicates.

MRSA = assay: Drop test assay, growth on THY agar; type: cell-based, Staphylococcus aureus; details: PBT2 (1.5 μM), zinc(II) ions (400 μM)
Procedure: as §6, §7

GAS = assay: Drop test assay, growth on THY agar; type: cell-based, Streptococcus pyogenes; details: PBT2 (1.5 μM), zinc(II) ions (400 μM)
Procedure: as §6, §7

[9] = humans; up to 250 mg/day (oral) for 12 weeks; cited from earlier work
[10] = K. pneumoniae, RA-HQ-12: 16 μM, Zn: 64 μM
[11] = MRSA, RA-HQ-12: 3.5 μM, Zn: […], oxacillin with 2% NaCl
[12] = MRSA, RA-HQ-12: 3.5 μM, oxacillin with 2% NaCl

Molecule: CN[C@H](CC(C)C)C(=O)N[C@H]1C(=O)N[C@@H](CC(N)=O)C(=O)N[C@H]2C(=O)N[C@H]3C(=O)N[C@H](C(=O)N[C@H](C(=O)O)c4cc(O)cc(O)c4-c4cc3ccc4O)[C@H](O)c3ccc(c(Cl)c3)Oc3cc2cc(c3O[C@@H]2O[C@H](CO)[C@@H](O)[C@H](O)[C@H]2O[C@H]2C[C@](C)(N)[C@H](O)[C@H](C)O2)Oc2ccc(cc2Cl)[C@H]1O [Vancomycin, vancomycin]
- MIC ([1]; K. pneumoniae, RA-HQ-12: 16 μM): >128 µg/mL
- MIC [1, 10]: >128 µg/mL
- MIC ([1]; K. pneumoniae, Zn: 64 μM): >128 µg/mL
- MIC ([1]; Klebsiella pneumoniae, MS6771): > 128 µg/mL
- MIC [2, 11]: 1 µg/mL
- MIC [2, 12]: 1 µg/mL
- MIC ([2]; Staphylococcus aureus): 1 µg/mL
- bacterial burden at the site of infection (CFUs) (VRE [3]; 1.5% vancomycin in combination with 2 mM PBT2 + 25 mM ZnSO4, ointment twice daily): significantly reducing infection
- bacterial burden at the site of infection (CFUs) (VRE [3]; treatment alone: 2 mM PBT2 + 25 mM ZnSO4, or 1.5% vancomycin, ointment twice daily): Neither antibiotic nor sub-inhibitory concentrations of PBT2+zinc(II) ions alone reduced bacterial burden
- MIC ([4]; Streptococcus pyogenes, GAS, RA-HQ-12: 3.5 μM): 0.5 µg/mL
- MIC ([4]; Streptococcus pyogenes, GAS, RA-HQ-12: 3.5 μM, Zn: […]): 0.25 µg/mL
- MIC ([4]; Streptococcus pyogenes, GAS, Zn: […] (RA-HQ-12 panel)): 0.5 µg/mL
- MIC ([4]; Streptococcus pyogenes, GAS, RA-HQ-12: 0 μM, Zn: 0 μM): 0.5 µg/mL
- MIC ([5]; Enterococcus, VRE, VRE RBWH1, CQ: 0 μM, Zinc: 0 μM): > 128 µg/mL
- MIC ([5]; Enterococcus, VRE, VRE RBWH1, CQ: 2.5 μM): > 128 µg/mL
- MIC ([5]; Enterococcus, VRE, VRE RBWH1, CQ: 2.5 μM, Zinc: 32 μM): 1 µg/mL
- MIC ([5]; Enterococcus, VRE, VRE RBWH1, PBT2: 0 μM, Zinc: 0 μM): > 128 µg/mL
- MIC ([5]; Enterococcus, VRE, VRE RBWH1, PBT2: 1.75 μM): > 128 µg/mL
- MIC ([5]; Enterococcus, VRE, VRE RBWH1, PBT2: 1.75 μM, Zinc: […]): 1 to 2 µg/mL
- MIC ([5]; Enterococcus, VRE, VRE RBWH1, Zinc: 32 μM): > 128 µg/mL
- MIC ([5]; Enterococcus, VRE, VRE RBWH1, Zinc: […] (PBT2 panel)): > 128 µg/mL
- MIC ([5]; Enterococcus, VRE, RA-HQ-12: 0 μM, Zn: 0 μM): > 128 µg/mL
- MIC ([5]; Enterococcus, VRE, RA-HQ-12: 3.5 μM): > 128 µg/mL
- MIC ([5]; Enterococcus, VRE, RA-HQ-12: 3.5 μM, Zn: […]): > 128 µg/mL
- MIC ([5]; Enterococcus, VRE, Zn: […] (RA-HQ-12 panel)): > 128 µg/mL
- antibiotic sensitivity of resistant strain ([5]; VRE RBWH1): became sensitive

Molecule: colistin
- MIC ([1]; K. pneumoniae, RA-HQ-12: 0 μM, Zn: 0 μM): 64 µg/mL
- MIC ([1]; K. pneumoniae, RA-HQ-12: 16 μM): 32 µg/mL
- MIC [1, 10]: 4^# μg/mL
- MIC ([1]; K. pneumoniae, Zn: 64 μM): 64 µg/mL
- antibiotic resensitization ([1]; Klebsiella pneumoniae MS6771, RA-HQ-12+zinc(II) ions (ZnSO4)): resensitize
- antibiotic sensitivity of resistant strain ([1]; Klebsiella pneumoniae MS6771, addition of sub-inhibitory PBT2+zinc(II) ions): became sensitive
- antibiotic sensitivity of resistant strain ([1]; Klebsiella pneumoniae MS6771, combination with PBT2, no zinc): resulted in sensitivity
- MIC ([1]; Klebsiella pneumoniae, CQ: 0 μM, Zinc: 0 μM): 64 µg/mL
- MIC ([1]; Klebsiella pneumoniae, CQ: 64 μM): 0.5 µg/mL
- MIC ([1]; Klebsiella pneumoniae, CQ: 64 μM, Zinc: 256 μM): 0.5 µg/mL
- MIC ([1]; Klebsiella pneumoniae, PBT2: 0 μM, Zinc: 0 μM): 32 to 64 µg/mL
- MIC ([1]; Klebsiella pneumoniae, Zinc: 256 μM (CQ panel)): 32 to 64 µg/mL
- MIC ([1]; Klebsiella pneumoniae, Zinc: 256 μM (PBT2 panel)): 32 to 64 µg/mL
- antibiotic sensitivity of resistant strain ([6]; addition of sub-inhibitory PBT2+zinc(II) ions): became sensitive
- antibiotic sensitivity of resistant strain ([6]; combination with PBT2, no zinc): resulted in sensitivity
- MIC ([6]; CQ: 0 μM, Zinc: 0 μM): 8 µg/mL
- MIC ([6]; CQ: 5 μM): 2 µg/mL
- MIC ([6]; CQ: 5 μM, Zinc: 25 μM): 0.5 to 1 µg/mL
- MIC ([6]; PBT2: 0 μM, Zinc: 0 μM): 8 µg/mL
- MIC ([6]; PBT2: 7 μM): 1 µg/mL
- MIC ([6]; PBT2: 7 μM, Zinc: 200 μM): 0.25 µg/mL
- MIC ([6]; Zinc: 25 μM): 8 µg/mL
- MIC ([6]; Zinc: 200 μM): 8 µg/mL
- MIC ([2]; MRSA USA300, CQ: 1 μM, Zinc: 32 μM): 2 µg/mL
- MIC ([2]; MRSA USA300, PBT2: 2 μM, Zinc: 50 μM): 2 µg/mL
- antibiotic resensitization ([2]; MRSA USA 300, RA-HQ-12+zinc(II) ions (ZnSO4)): resensitize
- antibiotic sensitivity of resistant strain ([2]; MRSA USA300, addition of sub-inhibitory PBT2+zinc(II) ions): became sensitive
- MIC [2, 11]: 8 µg/mL
- MIC [2, 12]: 64 µg/mL
- MIC (A. baumannii strain 42-A): >64 µg/mL
- MIC ([7]; PBT2): 1 µg/mL
- MIC ([7]; Untreated): 8 µg/mL
- antibiotic resensitization ([4]; GAS HKU16, RA-HQ-12+zinc(II) ions (ZnSO4)): resensitize
- antibiotic sensitivity of resistant strain ([4]; GAS HKU16, addition of sub-inhibitory PBT2+zinc(II) ions): became sensitive
- MIC ([4]; GAS, RA-HQ-12: 3.5 μM, Zn: […]): 2-4^# μg/mL
- MIC ([4]; Streptococcus pyogenes HKU16, CQ: 6 μM): 64 µg/mL
- MIC ([4]; Streptococcus pyogenes HKU16, CQ: 6 μM, Zinc: 80 μM): 1 µg/mL
- MIC ([4]; Streptococcus pyogenes HKU16, PBT2: 4.75 μM): 32 µg/mL
- MIC ([4]; Streptococcus pyogenes HKU16, PBT2: 4.75 μM, Zinc: […]): 0.5-1^ μg/mL
- MIC ([5]; VRE RBWH1, CQ: 2.5 μM, Zinc: 32 μM): 0.5 to 1 µg/mL
- MIC ([5]; VRE RBWH1, PBT2: 1.75 μM, Zinc: […]): 0.5 µg/mL
- antibiotic resensitization ([5]; VRE RBWH1, RA-HQ-12+zinc(II) ions (ZnSO4)): resensitize
- antibiotic sensitivity of resistant strain ([5]; VRE RBWH1): became sensitive
- MIC ([5]; VRE, RA-HQ-12: 3.5 μM): 32 µg/mL
- MIC ([5]; VRE, RA-HQ-12: 3.5 μM, Zn: […]): 2-4^# μg/mL

Molecule: CN(C)Cc1ccc2c(Cl)cc(Cl)c(O)c2n1 [PBT2, 5,7-dichloro-2-[(dimethylamino)methyl]-8-quinolinol]
- antibacterial activity (VRE [8]): neither PBT2 nor zinc(II) ions (in the form of zinc chloride) displayed antibacterial activity
- antibacterial activity (MRSA): neither PBT2 nor zinc(II) ions (in the form of zinc chloride) displayed antibacterial activity
- antibacterial activity (GAS): neither PBT2 nor zinc(II) ions (in the form of zinc chloride) displayed antibacterial activity
- safety and tolerability [9]: safe and well tolerated
- MIC ([2]; Staphylococcus aureus, MRSA USA300, substance alone): 3.75 µM
- MIC ([4]; Streptococcus pyogenes, GAS HKU 16, substance alone, read-out: MIC): > 30 µM
- MIC ([5]; Enterococcus, VRE RBWH1, substance alone, read-out: MIC): 1.9 µM
